The values below come from publication PMC3532720, “A Sugar Gustatory Receptor Identified from the Foregut of Cotton Bollworm Helicoverpa armigera” (Journal of Chemical Ecology, 2012).

The target in the experiment is T1, HaGR9 (Helicoverpa armigera, UniProt L0C9V2).
T1 construct: gene GR9; native full-length receptor, 465 residues, untagged, cDNA from larval foregut, transiently expressed in Spodoptera frugiperda Sf9 cells, no co-receptor co-transfected
T1 sequence (L0C9V2 1-465): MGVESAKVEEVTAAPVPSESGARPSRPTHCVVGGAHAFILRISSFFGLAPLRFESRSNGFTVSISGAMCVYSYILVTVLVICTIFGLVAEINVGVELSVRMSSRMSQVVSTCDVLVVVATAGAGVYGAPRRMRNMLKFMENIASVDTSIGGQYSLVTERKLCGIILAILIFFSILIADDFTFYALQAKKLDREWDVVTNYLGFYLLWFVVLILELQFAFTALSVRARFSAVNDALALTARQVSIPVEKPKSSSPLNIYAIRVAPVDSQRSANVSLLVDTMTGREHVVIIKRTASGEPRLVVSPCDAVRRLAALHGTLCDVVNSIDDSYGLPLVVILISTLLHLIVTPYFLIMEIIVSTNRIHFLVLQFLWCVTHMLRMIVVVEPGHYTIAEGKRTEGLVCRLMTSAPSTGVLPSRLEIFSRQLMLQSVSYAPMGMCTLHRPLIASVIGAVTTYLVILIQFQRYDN
Kind of experiment: calcium imaging, transfected Sf9 cells. It counts as cell-based. To be noted: agonist; dose range 5 to 50 mM; HBSS buffer; control-cell response subtracted; Sf9 cells have endogenous sugar responses.

By EC50 is commonly meant the concentration at which the effect is half-maximal. Consider `OCC1(O)OC[C@@H](O)[C@@H](O)[C@@H]1O` (stereo partly drawn) [D-fructose], for which the EC50 was determined as 21.5 ± 1.1 mM.

As to `OC[C@H]1O[C@H](O[C@H]2[C@H](O)[C@@H](O)C(O)O[C@@H]2CO)[C@H](O)[C@@H](O)[C@@H]1O` (stereo partly drawn) [D-maltose], the EC50 worked out at 16.5 ± 1.3 mM.

In the case of `OC[C@H]1OC(O)[C@H](O)[C@@H](O)[C@H]1O` (stereo partly drawn) [D-galactose], the EC50 is 21.3 ± 1.1 mM.
